This note sets out measurements from patent US20260226068A1, “IMIDAZOTRIAZINE IL-17A MODULATORS AND USES THEREOF” (DICE ALPHA, INC., priority 2023, published 2026).

The target in experiment [1] is T1, IL-17A/A (Homo sapiens, UniProt Q16552).
T1 construct: purchased Genscript Z03228
T1 sequence (Q16552 24-155): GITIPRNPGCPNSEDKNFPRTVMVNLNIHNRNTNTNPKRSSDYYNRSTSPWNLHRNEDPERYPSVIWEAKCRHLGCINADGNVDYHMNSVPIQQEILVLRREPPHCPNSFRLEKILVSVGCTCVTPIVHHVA
Briefly: IL-17A/A HEK-Blue cell assay (SEAP reporter). The experiment is classed as cell-based. The conditions noted are these: HEK-Blue IL-17A reporter cells, IL17A/A 5 ng/mL, 20 hours, SEAP read at A630; read-out: HEK-Blue IL17AA (IC50 for IL-17A/A inhibition).

Experiment [2] has as its target T2, IL-17A/F (Homo sapiens, UniProt Q16552+Q96PD4).
T2 construct: purchased R&D Systems
T2 sequence (Q16552 24-155): T1 sequence (Q16552 24-155)
T2 sequence (Q96PD4 31-163): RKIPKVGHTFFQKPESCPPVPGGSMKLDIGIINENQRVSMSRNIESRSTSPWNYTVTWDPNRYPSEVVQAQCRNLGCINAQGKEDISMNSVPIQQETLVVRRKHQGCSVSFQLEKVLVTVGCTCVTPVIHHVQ
In words: IL-17A/F HEK-Blue cell assay (SEAP reporter). The experiment is classed as cell-based. The settings on record: HEK-Blue IL-17A reporter cells, IL17A/F 5 ng/mL, 20 hours, SEAP read at A630; read-out: HEK-Blue IL17AF (IC50 for IL-17A/F inhibition).

Molecules are shown by their SMILES. Where only a bound is given, the exact number is not on record here.

On to `CCn1nccc1C(=O)N[C@H](c1cn2nc(C[C@@H]3CCCNC3=O)c(C3CCOCC3)nc2n1)C1CCC(F)(F)CC1` [Compound 380], for which the IC50 is under 100 nM in experiment [1] and over 1000 nM in experiment [2].
The matching figures for `O=C(N[C@H](c1cn2nc(C[C@H]3C[C@@H](C(F)(F)F)CNC3=O)c(C3CCOCC3)nc2n1)C1CCC(F)(F)CC1)c1ccnn1C1CC1` [Compound 419]: under 100 nM and 100 to 1000 nM.
Consider `CCn1nccc1C(=O)N[C@H](c1cn2nc(C[C@H]3C[C@@H](C(F)(F)F)CNC3=O)c([C@@H]3CN(C)CCO3)nc2n1)C1CCC(F)(F)CC1` (single isomer, unassigned) [Compound 376], for which the IC50 in experiment [1] was under 100 nM; in experiment [2] it was over 1000 nM.
The matching figures for `CCn1nccc1C(=O)N[C@H](c1cn2nc(C[C@H]3C[C@@H](C(F)(F)F)CNC3=O)c(N3CCN(C)[C@H](C)C3)nc2n1)C1CCC(F)(F)CC1` [Compound 298, N—((S)-(4,4-difluorocyclohexyl)(3-((R)-3,4-dimethylpiperazin-1-yl)-2-(((3R,5R)-2-oxo-5-(trifluoromethyl)piperidin-3-yl)methyl)imidazo[1,2-b][1,2,4]triazin-6-yl)methyl)-1-ethyl-1H-pyrazole-5-carboxamide]: under 100 nM and under 100 nM.
The matching figures for `CCn1nccc1C(=O)N[C@@H](c1cn2nc(C[C@H]3C[C@@H](C(F)(F)F)CNC3=O)c(C3CCOCC3)nc2n1)C1CC2CC2C1` (stereo partly shown) [Compound 198]: under 100 nM and 100 to 1000 nM.
Take `CCn1nccc1C(=O)N[C@H](c1cn2nc(C[C@H]3C[C@@H](C(F)(F)F)CNC3=O)c(N3CCC4(CCOCC4)C3)nc2n1)C1CCC(F)(F)CC1` [Compound 162, N—((S)-(4,4-difluorocyclohexyl)(2-(((3R,5R)-2-oxo-5-(trifluoromethyl)piperidin-3-yl)methyl)-3-(8-oxa-2-azaspiro[4.5]decan-2-yl)imidazo[1,2-b][1,2,4]triazin-6-yl)methyl)-1-ethyl-1H-pyrazole-5-carboxamide]: the values for the IC50 in experiment [1] and in experiment [2] were under 100 nM and 100 to 1000 nM, respectively.
In the same order, the values of `O=C(N[C@H](c1cn2nc(C[C@H]3C[C@H](C(F)(F)F)CNC3=O)cnc2n1)C1CCC(F)(F)CC1)c1nonc1C1CC1` [Compound 53] are 100 to 1000 nM and over 1000 nM.
The matching figures for `CCn1nccc1C(=O)N[C@H](c1cn2nc(CC3C[C@@H](C(F)(F)F)CNC3=O)c(N3CC4CC(C3)O4)nc2n1)[C@@H]1CCCC(F)(F)C1` (single isomer, unassigned) [Compound 96]: under 100 nM and 100 to 1000 nM.
The matching figures for `CCn1nccc1C(=O)N[C@H](c1cn2nc(C[C@H]3C[C@@H](C(F)(F)F)NC3=O)c(C3CCOCC3)nc2n1)C1CCC(F)(F)CC1` [Compound 151, N—((S)-(4,4-difluorocyclohexyl)(2-(((3R,5S)-2-oxo-5-(trifluoromethyl)pyrrolidin-3-yl)methyl)-3-(tetrahydro-2H-pyran-4-yl)imidazo[1,2-b][1,2,4]triazin-6-yl)methyl)-1-ethyl-1H-pyrazole-5-carboxamide]: under 100 nM and 100 to 1000 nM.
For `CCn1nccc1C(=O)N[C@H](c1cn2nc(C[C@H]3C[C@@H](C(F)(F)F)CNC3=O)c(CN3CCC(F)CC3)nc2n1)C1CCC(F)(F)CC1` [Compound 371, N—((S)-(4,4-difluorocyclohexyl)(3-((4-fluoropiperidin-1-yl)methyl)-2-(((3R,5R)-2-oxo-5-(trifluoromethyl)piperidin-3-yl)methyl)imidazo[1,2-b][1,2,4]triazin-6-yl)methyl)-1-ethyl-1H-pyrazole-5-carboxamide], the values for the IC50 in experiment [1] and in experiment [2] were under 100 nM and 100 to 1000 nM, respectively.
In the same order, the values of `CCn1nccc1C(=O)N[C@H](c1cn2nc(C[C@H]3C[C@@H](C)CNC3=O)c(C(C)C)nc2n1)C1CCC(F)(F)CC1` [Compound 389] are 100 to 1000 nM and over 1000 nM.
On to `CCn1nccc1C(=O)N[C@H](c1cn2nc(C[C@H]3C[C@@H](C(F)(F)F)CNC3=O)c(C3CCOCC3)nc2n1)[C@H]1C[C@H]2C[C@H]2C1` [Compound 292, N—((S)-((1R,3r,5S)-bicyclo[3.1.0]hexan-3-yl)(2-(((3R,5R)-2-oxo-5-(trifluoromethyl)piperidin-3-yl)methyl)-3-(tetrahydro-2H-pyran-4-yl)imidazo[1,2-b][1,2,4]triazin-6-yl)methyl)-1-ethyl-1H-pyrazole-5-carboxamide], for which the figures for the IC50 in experiment [1] and in experiment [2] were under 100 nM and over 1000 nM, respectively.
With `CCn1nccc1C(=O)N[C@H](c1cn2nc(C[C@H]3C[C@H](C(F)(F)F)CNC3=O)c(C(C)(C)F)nc2n1)C1CCC(F)(F)CC1` [Compound 161, N-((1S)-(4,4-difluorocyclohexyl)(3-(2-fluoropropan-2-yl)-2-(((3R,5S)-2-oxo-5-(trifluoromethyl)piperidin-3-yl)methyl)imidazo[1,2-b][1,2,4]triazin-6-yl)methyl)-1-ethyl-1H-pyrazole-5-carboxamide], the IC50 was under 100 nM in experiment [1] and over 1000 nM in experiment [2].
In the same order, the values of `CCn1nccc1C(=O)N[C@H](c1cn2nc(C[C@H]3C[C@@H](C(F)(F)F)CNC3=O)c(C3CCOCC3)nc2n1)[C@H]1CC[C@H](C)CC1` [Compound 78, 1-ethyl-N-((1S)-((1r,4S)-4-methylcyclohexyl)(2-(((3R,5R)-2-oxo-5-(trifluoromethyl)piperidin-3-yl)methyl)-3-(tetrahydro-2H-pyran-4-yl)imidazo[1,2-b][1,2,4]triazin-6-yl)methyl)-1H-pyrazole-5-carboxamide] are under 100 nM and under 100 nM.
In the same order, the values of `CCn1ccc(C(=O)N[C@H](c2cn3nc(C[C@H]4C[C@@H](C(F)(F)F)CNC4=O)c(C4CCOCC4)nc3n2)C2CCC(F)(F)CC2)n1` [Compound 418, N—((S)-(4,4-difluorocyclohexyl)(2-(((3R,5R)-2-oxo-5-(trifluoromethyl)piperidin-3-yl)methyl)-3-(tetrahydro-2H-pyran-4-yl)imidazo[1,2-b][1,2,4]triazin-6-yl)methyl)-1-ethyl-1H-pyrazole-3-carboxamide] are under 100 nM and over 1000 nM.
In the same order, the values of `CC(F)(F)c1nocc1C(=O)N[C@H](c1cn2nc(C[C@H]3C[C@@H](C(F)(F)F)CNC3=O)c(C3CCOCC3)nc2n1)C1CCC(F)(F)CC1` [Compound 260, N—((S)-(4,4-difluorocyclohexyl)(2-(((3R,5R)-2-oxo-5-(trifluoromethyl)piperidin-3-yl)methyl)-3-(tetrahydro-2H-pyran-4-yl)imidazo[1,2-b][1,2,4]triazin-6-yl)methyl)-3-(1,1-difluoroethyl)isoxazole-4-carboxamide] are under 100 nM and 100 to 1000 nM.
On to `CCn1nccc1C(=O)N[C@H](c1cn2nc(C[C@H]3C[C@@H](C(F)(F)F)CNC3=O)c(C3CCOCC3)nc2n1)C1CC2(C1)CC(F)(F)C2` [Compound 197], for which the results for the IC50 in experiment [1] and in experiment [2] were under 100 nM and over 1000 nM, respectively.
In the same order, the values of `CCn1nccc1C(=O)N[C@H](c1cn2nc(CC3C[C@@H](C(F)(F)F)CNC3=O)c(N3CCOCC3)nc2n1)[C@H]1CC[C@H](C)CC1` (stereo partly shown) [Compound 59] are under 100 nM and over 1000 nM.
The matching figures for `CCn1nccc1C(=O)N[C@H](c1cn2nc(C[C@H]3C[C@@H](C(F)(F)F)CNC3=O)c(C3COCCN3)nc2n1)C1CCC(F)(F)CC1` (stereo partly drawn) [Compound 353, N-((1S)-(4,4-difluorocyclohexyl)(3-(morpholin-3-yl)-2-(((3R,5R)-2-oxo-5-(trifluoromethyl)piperidin-3-yl)methyl)imidazo[1,2-b][1,2,4]triazin-6-yl)methyl)-1-ethyl-1H-pyrazole-5-carboxamide]: under 100 nM and over 1000 nM.
The matching figures for `CCn1nccc1C(=O)N[C@H](c1cn2nc(C[C@H]3C[C@@H](C(F)(F)F)CNC3=O)c(C3Cc4cncnc4C3)nc2n1)C1CCC(F)(F)CC1` (single isomer, unassigned) [Compound 400]: under 100 nM and 100 to 1000 nM.
As to `CCn1nccc1C(=O)N[C@H](c1cn2nc(C[C@H]3C[C@H](C(F)(F)F)CNC3=O)c(N3CCO[C@H](C)C3)nc2n1)[C@@H]1CCCC(F)(F)C1` [Compound 305, N—((S)—((R)-3,3-difluorocyclohexyl)(3-((R)-2-methylmorpholino)-2-(((3R,5S)-2-oxo-5-(trifluoromethyl)piperidin-3-yl)methyl)imidazo[1,2-b][1,2,4]triazin-6-yl)methyl)-1-ethyl-1H-pyrazole-5-carboxamide], the IC50 in experiment [1] and in experiment [2] was under 100 nM in each case.
On to `CCn1nccc1C(=O)N[C@H](c1cn2nc(C[C@H]3C[C@@H](C(F)(F)F)CNC3=O)c(CN3CC4(C3)CC(O)(C(F)(F)F)C4)nc2n1)C1CCC(F)(F)CC1` [Compound 341, N—((S)-(4,4-difluorocyclohexyl)(3-((6-hydroxy-6-(trifluoromethyl)-2-azaspiro[3.3]heptan-2-yl)methyl)-2-(((3R,5R)-2-oxo-5-(trifluoromethyl)piperidin-3-yl)methyl)imidazo[1,2-b][1,2,4]triazin-6-yl)methyl)-1-ethyl-1H-pyrazole-5-carboxamide], for which the IC50 was under 100 nM in experiment [1] and over 1000 nM in experiment [2].
In the same order, the values of `CCn1nccc1C(=O)N[C@H](c1cn2nc(C[C@H]3C[C@@H](C(F)(F)F)CNC3=O)c(N[C@H]3CC[C@@H](OC)CC3)nc2n1)C1CCC(F)(F)CC1` [Compound 201] are under 100 nM and 100 to 1000 nM.
